Experimental data taken from US20230293526A1, “METHOD FOR TREATING CANCER WITH A REVERSE TRANSCRIPTASE INHIBITOR” (PrimeFour Therapeutics, Inc., priority 2020, published 2023).

System: cancer cell lines
Assay: Cancer cell proliferation activity of representative nucleosides, CellTiterGlo 72 h (Example 7, Tables 8 and 9)
Type: cell-based
Conditions: 72 h
Experimental: Dose response relationships on cell proliferation was assessed for representative nucleosides on cancer cell lines. Briefly, compound treatment of cells started one day after seeding with a final DMSO concentration of 0.1%, and was performed by nanodrop-dispensing using a Tecan Dispenser. 0.1% DMSO (solvent) and Staurosporine (10 μM) served as high control (100% viability) and low control (0% viability), respectively. Cells were cultured in the appropriate media. For the assays, cells were seeded in white cell culture-treated flat and clear bottom multiwell plates and incubated at 37° C. overnight before compound was added. After incubation for 72 h at 37° C. at 5% or 10% CO2 dependent on the medium, cell plates were equilibrated to room temperature for one hour, CellTiterGlo reagent (Promega) was added and luminescence was measured approximately an hour later using a luminometer.
Raw data were converted into percent cell viability relative to the high and low control, which were set to 100% and 0%, respectively.

## N#C[C@]1(CO)O[C@@H](n2ccc(N)nc2=O)C[C@@H]1O [compound 29]
72 h, 5637, bladder
  IC50: 230 nM
CLS439, bladder
  IC50: 3000 nM
HS729, muscle
  IC50: 550 nM
J82, bladder
  IC50: 840 nM
JAR, placenta
  IC50: > 50000 nM
MT3, breast
  IC50: 120 nM
PC3, prostate
  IC50: 200 nM
RD, muscle
  IC50: 1400 nM
T24, bladder
  IC50: 180 nM
Homo sapiens, 22Rv1, 72 h, 22RV1, prostate
  IC50: 1040 nM
Homo sapiens, 786-0, 72 h, 786O, kidney
  IC50: 1610 nM
Homo sapiens, A204, 72 h, A204, muscle
  IC50: 30 nM
Homo sapiens, A549, 72 h, A549, lung
  IC50: 880 nM
Homo sapiens, A673, 72 h, A673, bone
  IC50: 200 nM
Homo sapiens, A2780, 72 h, A2780, ovary
  IC50: 640 nM
Homo sapiens, A-375, 72 h, A375, skin
  IC50: 570 nM
Homo sapiens, A-431, 72 h, A431, skin
  IC50: 300 nM
Homo sapiens, ACHN, kidney
  IC50: 710 nM
Homo sapiens, ASPC1, 72 h, ASPC1, pancreas
  IC50: 280 nM
Homo sapiens, BT-20, 72 h, BT20, breast
  IC50: 1470 nM
Homo sapiens, BXPC-3, 72 h, BXPC3, pancreas
  IC50: 350 nM
Homo sapiens, C-33-A, C33A, endometrial
  IC50: 240 nM
Homo sapiens, CAKI-1, 72 h, CAKI1, kidney
  IC50: 110 nM
Homo sapiens, COLO 205, 72 h, COLO205, colon
  IC50: 160 nM
Homo sapiens, COLO-678, 72 h, COLO678, colon
  IC50: 10800 nM
Homo sapiens, Ca-Ski, CASKI, endometrial
  IC50: 5220 nM
Homo sapiens, Caco-2, 72 h, CACO2, colon
  IC50: > 50000 nM
Homo sapiens, Calu-6, 72 h, CALU6, lung
  IC50: 2540 nM
Homo sapiens, DLD-1, 72 h, DLD1, colon
  IC50: 770 nM
Homo sapiens, DU-145, 72 h, DU145, prostate
  IC50: 330 nM
Homo sapiens, EFO-21, 72 h, EFO21, ovary
  IC50: 1190 nM
Homo sapiens, EJ-28, 72 h, EJ28, bladder
  IC50: 2340 nM
Homo sapiens, Granta-519, 72 h, GRANTA-519, hematological
  IC50: 80 nM
Homo sapiens, HCT-15, 72 h, HCT15, colon
  IC50: 810 nM
Homo sapiens, HCT-116, 72 h, HCT116, colon
  IC50: 550 nM
Homo sapiens, HEK293, 72 h, HEK293, kidney
  IC50: 12700 nM
Homo sapiens, HL-60, 72 h, HL-60, hematological
  IC50: 540 nM
Homo sapiens, HT-29, 72 h, HT29, colon
  IC50: 1060 nM
Homo sapiens, HT-1080, 72 h, HT1080, connective tissue
  IC50: 350 nM
Homo sapiens, HeLa, endometrial
  IC50: 750 nM
Homo sapiens, HepG2, 72 h, HEPG2, liver
  IC50: 2670 nM
Homo sapiens, Hs-578T, HS578T, breast
  IC50: 1790 nM
Homo sapiens, IGROV-1, 72 h, IGROV1, ovary
  IC50: 1370 nM
Homo sapiens, IMR-90, 72 h, IMR90, lung
  IC50: 2730 nM
Homo sapiens, JEG-3, 72 h, JEG3, placenta
  IC50: 1900 nM
Homo sapiens, JIMT-1, 72 h, JIMT1, breast
  IC50: 210 nM
Homo sapiens, K562, 72 h, K-562, hematological
  IC50: 1610 nM
Homo sapiens, Kasumi 1, 72 h, KASUMI-1, hematological
  IC50: 220 nM
Homo sapiens, L-363, 72 h, L-363, hematological
  IC50: > 50000 nM
Homo sapiens, LoVo, colon
  IC50: 440 nM
Homo sapiens, MCF7, 72 h, MCF7, breast
  IC50: > 50000 nM
Homo sapiens, MDA-MB-231, 72 h, MDAMB231, breast
  IC50: 130 nM
Homo sapiens, MDA-MB-435, 72 h, MDAMB435, skin
  IC50: 2120 nM
Homo sapiens, MDA-MB-436, 72 h, MDAMB436, breast
  IC50: 360 nM
Homo sapiens, MDA-MB-468, 72 h, MDAMB468, breast
  IC50: 1200 nM
Homo sapiens, MG-63, 72 h, MG63, bone
  IC50: 570 nM
Homo sapiens, MHH-ES-1, 72 h, MHHES1, bone
  IC50: 210 nM
Homo sapiens, MIA PaCa-2, 72 h, MIAPACA2, pancreas
  IC50: 1930 nM
Homo sapiens, MINO, hematological
  IC50: 70 nM
Homo sapiens, MV4-11, 72 h, MV4-11, hematological
  IC50: 600 nM
Homo sapiens, NCI-H23, 72 h, NCI-H23, lung
  IC50: 1340 nM
Homo sapiens, NCI-H82, 72 h, NCIH82, lung
  IC50: > 50000 nM
Homo sapiens, NCI-H292, 72 h, NCIH292, lung
  IC50: 790 nM
Homo sapiens, NCI-H460, 72 h, NCIH460, ung
  IC50: 2050 nM
Homo sapiens, OVCAR-3, 72 h, OVCAR3, ovary
  IC50: 580 nM
Homo sapiens, OVCAR-4, 72 h, OVCAR4, ovary
  IC50: 4180 nM
Homo sapiens, PANC-1, 72 h, PANC1, pancreas
  IC50: 3430 nM
Homo sapiens, PLC-PRF-5, 72 h, PLCPRF5, liver
  IC50: > 50000 nM
Homo sapiens, Panc1005, 72 h, PANC1005, pancreas
  IC50: 650 nM
Homo sapiens, Ramos, hematological
  IC50: 170 nM
Homo sapiens, SAOS-2, 72 h, SAOS2, bone
  IC50: 110 nM
Homo sapiens, SF-268, 72 h, SF268, brain
  IC50: 350 nM
Homo sapiens, SF-295, 72 h, SF295, brain
  IC50: 1130 nM
Homo sapiens, SK-BR-3, 72 h, SKBR3, breast
  IC50: 650 nM
Homo sapiens, SK-HEP1, 72 h, SKHEP1, liver
  IC50: 240 nM
Homo sapiens, SK-LMS-1, 72 h, SKLMS1, uterus
  IC50: 3740 nM
Homo sapiens, SK-MEL-5, 72 h, SKMEL5, skin
  IC50: > 50000 nM
Homo sapiens, SK-MEL-28, 72 h, SKMEL28, skin
  IC50: 2630 nM
Homo sapiens, SK-N-AS, SKNAS, brain
  IC50: 4410 nM
Homo sapiens, SK-N-SH, SKNSH, brain
  IC50: > 50000 nM
Homo sapiens, SK-OV-3, 72 h, SKOV3, ovary
  IC50: 890 nM
Homo sapiens, SNB-75, 72 h, SNB75, brain
  IC50: 840 nM
Homo sapiens, SU-DHL10, 72 h, SU-DHL-10, hematological
  IC50: 500 nM
Homo sapiens, SU-DHL-6, 72 h, SU-DHL-6, hematological
  IC50: 800 nM
Homo sapiens, SW-620, 72 h, SW620, colon
  IC50: 2640 nM
Homo sapiens, TE-671, 72 h, TE671, muscle
  IC50: 1750 nM
Homo sapiens, THP-1, 72 h, THP-1, hematological
  IC50: 970 nM
Homo sapiens, U2OS, bone
  IC50: 5320 nM
Homo sapiens, U-87 MG, U87MG, brain
  IC50: 500 nM
Homo sapiens, UMUC3, 72 h, UMUC3, bladder
  IC50: 1160 nM
Homo sapiens, UO-31, 72 h, UO31, kidney
  IC50: 660 nM
Homo sapiens, WSU-NHL, hematological
  IC50: 220 nM
NCI-H358M, NCIH358M, lung
  IC50: 40 nM
PBMC, hematological
  IC50: 350 nM
RD-ES, RDES, bone
  IC50: 1620 nM
